Measurements reported in BigSolDB 2.1.

CC(C)(O)P1(=O)OCC2(CO1)COP(=O)(C(C)(C)O)OC2 (stereo not given)
Conditions | solubility (mole fraction)
in acetic acid, 293.16 K | 0.00691
in acetic acid, 298.15 K | 0.0078
in acetic acid, 303.14 K | 0.00907
in acetic acid, 307.96 K | 0.0104
in acetic acid, 312.97 K | 0.0114
in acetic acid, 318.05 K | 0.0131
in acetic acid, 323.15 K | 0.015
in acetic acid, 328.05 K | 0.0173
in acetic acid, 333.04 K | 0.0196
in acetic acid, 338.14 K | 0.0231
in acetone, 293.6 K | 0.000582
in acetone, 298.44 K | 0.000762
in acetone, 303.35 K | 0.00095
in acetone, 308.29 K | 0.00124
in acetone, 313.27 K | 0.00159
in acetone, 318.4 K | 0.00194
in acetone, 323.3 K | 0.00234
in ethanol, 294.15 K | 0.00153
in ethanol, 297.63 K | 0.00184
in ethanol, 303.05 K | 0.00231
in ethanol, 307.95 K | 0.00269
in ethanol, 313.15 K | 0.00346
in ethanol, 318.16 K | 0.00391
in ethanol, 322.95 K | 0.00476
in ethanol, 327.84 K | 0.00582
in ethanol, 332.93 K | 0.00666
in ethanol, 337.94 K | 0.00846
in methanol, 293.13 K | 0.00585
in methanol, 298.15 K | 0.00665
in methanol, 302.94 K | 0.00751
in methanol, 307.75 K | 0.00875
in methanol, 312.76 K | 0.00998
in methanol, 317.95 K | 0.0117
in methanol, 323.05 K | 0.0136
in water, 293.13 K | 0.00564
in water, 298.01 K | 0.00585
in water, 303.15 K | 0.00607
in water, 308.16 K | 0.00631
in water, 313.05 K | 0.00658
in water, 317.89 K | 0.00692
in water, 323.05 K | 0.00723
in water, 328.13 K | 0.00754
in water, 332.95 K | 0.00793
in water, 337.94 K | 0.00826
in water, 342.86 K | 0.00867
